Measured values from patent US20060154871A1, “Peptides” (ReGen Therapeutics PIc, priority 1999, published 2006).

System: rabbits
Experiment: Serum antibody titre by ELISA against the corresponding synthetic peptide antigen, before and after the 10 week immunisation of rabbits
Type: in vivo, rabbit
Details: for Titre: (Serum Dilution) Post Immunization R1: rabbit R1, after 10 week immunisation protocol, 200 μg peptide conjugate per inoculation; for Titre: (Serum Dilution) Pre Immunization R1: rabbit R1, pre immunization serum, ELISA with synthetic peptide antigen; for antigenic response: rabbits R1 and R2, summary of Table 6
From the text: To each N-terminal end of the synthetic peptides, L-cysteine was attached, and the peptide was formed into a ring so that the cysteine group lay between the N-terminal and the C-terminal ends of the synthetic peptide. This facilitated peptide conjugation with Keyhole Hemolymph (KHL). The shorter peptides (i.e. those containing 9 or fewer amino acids) were artificially elongated with biologically inert amino acids prior to attaching the L-cysteine. This was done in order to facilitate annealing and increase the antigenicity of the shorter peptides.
For immunisation, two young adult rabbits (5-6 months old, weighing 5-6 lbs [2.3-2.7 kg]) were used. Each antigen (i.e., each synthetic peptide) was given subcutaneously and intramuscularly in 0.1 ml injections at ten different sites. The protocol used followed the following sequence:
The level of antibodies in the serum was established by ELISA (enzyme-linked immunosorbent assay) with the corresponding synthetic peptide antigen. This technique involved the following steps: • 1. The antigen was diluted with a 0.1 M bicarbonate buffer (pH 9.0) to yield a 10 μg of antigen/ml solution. A volume of 50 μl of this solution was placed into each microwell of a 96 well plate. • 2. The plates were covered and incubated at 37° C. for 3 hours. • 3. The wells were washed with a coupling buffer and blocked using 200 μl of Pierce standard solution of BSA (bovine serum albumin). • 4. 50 μl of dilutent BSA (0.75% soln.) was pipetted into each well. 50 μl of antibody serum sample diluted 1:100 in dilutent BSA were placed in lane A of each row. • 5. 1:2 serial dilutions were performed moving down the plate. • 6. The plates were covered and incubated at room temperature for 60 minutes. • 7. The plates were washed four times with PBS wash solution. • 8. A volume of 50 μl of goat anti-rabbit IgG (H&L) HRP conjugate at 1:1000 dilution in BSA was pipetted into each well and incubated at room temperature for 60 minutes (H&L=heavy and light chain; HRP=horseradish peroxidase). • 9. The plates were washed four times with PBS wash solution. • 10. A volume of 50 μl of substrate solution 2,2′-azino-bis(3-ethylbenzothiazoline-6-sulfonic acid)-diammonium salt (ABTS available from Pierce, which is used to help visualise the extent of the antibody/antigen reaction) was pipetted into each well and incubated at room temperature for about 2 minutes. • 11. The reaction was stopped by adding 50 μl of 1% SDS (sodium dodecyl sulfate) into each well. • 12. The wells were then read on a dynoplate reader at 405.
The data presented in Table 6 show the serum antibody titers against specific antibodies after the 10 week immunisation protocol.

In the case of “AFLLYQE [Peptide C-12, β-casein precursor peptide, Casein Position 202-208]”, the “Titre: (Serum Dilution) Post Immunization R1” value is reported as 12800.
“ATFNRYQDDHGEEILKSL [Peptide D-1, annexin precursor peptide, Annexin Position 203-220]” was tested, and the “Titre: (Serum Dilution) Post Immunization R1” value was 12800 and the “Titre: (Serum Dilution) Pre Immunization R1” value was 0.
For “DLEMPVLPVEPFPFV [Peptide B-7, Colostrinin peptide (possibly) having β-casein homologue precursor]”, the “Titre: (Serum Dilution) Post Immunization R1” value was 25600 and the “Titre: (Serum Dilution) Pre Immunization R1” value was 0.
In the case of “DPPPPQS [Peptide A-7, Colostrinin peptide of unknown precursor]”, the “Titre: (Serum Dilution) Post Immunization R1” value is reported as 3400, the “Titre: (Serum Dilution) Pre Immunization R1” value is reported as 0 and the antigenic response is reported as “significantly lower than expected”.
In the case of “DQPPDVEKPDLQPFQVQS [Peptide B-10, Colostrinin peptide (possibly) having β-casein homologue precursor]”, the “Titre: (Serum Dilution) Post Immunization R1” value is reported as 12800 and the “Titre: (Serum Dilution) Pre Immunization R1” value is reported as 0.
With DSQPPV [Peptide B-4] the “Titre: (Serum Dilution) Post Immunization R1” value was 25600 and the “Titre: (Serum Dilution) Pre Immunization R1” value was 0.
With FPPPK [Peptide B-5] the “Titre: (Serum Dilution) Post Immunization R1” value was 12800 and the “Titre: (Serum Dilution) Pre Immunization R1” value was 0.
For “KYKLQPE [Peptide B-2, Colostrinin peptide (possibly) having β-casein homologue precursor]”, the “Titre: (Serum Dilution) Post Immunization R1” value was 25600 and the “Titre: (Serum Dilution) Pre Immunization R1” value was 0.
For “LFFFLPVVNVLP [Peptide B-8, Colostrinin peptide (possibly) having β-casein homologue precursor]”, the “Titre: (Serum Dilution) Post Immunization R1” value was 200, the “Titre: (Serum Dilution) Pre Immunization R1” value was 0 and the antigenic response was “significantly lower than expected”.
“LKPFPKLKVEVFPFP [Peptide A-4, Colostrinin peptide of unknown precursor]” was tested, and the “Titre: (Serum Dilution) Post Immunization R1” value was 6400 and the “Titre: (Serum Dilution) Pre Immunization R1” value was 0.
With “LQTPQPLLQVMMEPQGD [Peptide A-1, Colostrinin peptide of unknown precursor]” the “Titre: (Serum Dilution) Post Immunization R1” value was 6400, the “Titre: (Serum Dilution) Pre Immunization R1” value was 0 and the antigenic response was “significantly lower than expected”.
“MPQNFYKLPQM [Peptide A-2, Colostrinin peptide of unknown precursor]” was tested, and the “Titre: (Serum Dilution) Post Immunization R1” value was 6400 and the “Titre: (Serum Dilution) Pre Immunization R1” value was 0.
For “MQPPPLP [Peptide B-9, Colostrinin peptide (possibly) having β-casein homologue precursor]”, the “Titre: (Serum Dilution) Post Immunization R1” value was 3200 and the “Titre: (Serum Dilution) Pre Immunization R1” value was 0.
For SEEMP [Peptide B-3], the “Titre: (Serum Dilution) Post Immunization R1” value was 25600 and the “Titre: (Serum Dilution) Pre Immunization R1” value was 0.
For SEQP [Peptide A-5], the “Titre: (Serum Dilution) Post Immunization R1” value was 3200 and the “Titre: (Serum Dilution) Pre Immunization R1” value was 0.
For “VLEMKFPPPPQETVT [Peptide A-3, Colostrinin peptide of unknown precursor]”, the “Titre: (Serum Dilution) Post Immunization R1” value was 6400 and the “Titre: (Serum Dilution) Pre Immunization R1” value was 0.
For “VLPPNVG [Peptide B-1, Colostrinin peptide (possibly) having β-casein homologue precursor]”, the “Titre: (Serum Dilution) Post Immunization R1” value was 26500 and the “Titre: (Serum Dilution) Pre Immunization R1” value was 0.
With VVMEV [Peptide B-6] the “Titre: (Serum Dilution) Post Immunization R1” value was 25600 and the “Titre: (Serum Dilution) Pre Immunization R1” value was 0.
